Earlier results on 3 compounds are cited in patent US20020037319A1, “Drug preparations” (priority 1999, published 2002).

Structures can show the parent of a compound that is named as a salt.

The conditions of data set [1]: oral, therapeutic dosages between 100 mg and 200 mg per day.

On to `O=C(O)Cc1ccccc1Nc1c(Cl)cccc1Cl` [Diclofenac sodium], for which the solubility in water result is on record as “sparingly soluble”.
With `O=C(O)Cc1ccccc1Nc1c(Cl)cccc1Cl` [diclofenac, 2-[2,6-di-chlorophenyl)amino]benzeneacetic acid, monosodium or monopotassium salt], the “treated patients who experience some form of GI (gastrointestinal) distress” value in data set [1] was “more than 50%”. Moreover, where the note is “sodium or potassium salt”, the solubility in chloroform result is “practically insoluble”, the “solubility in dilute acid” value was “practically insoluble”, the solubility in ethanol entry is on record as “soluble” and the solubility in methanol entry was “freely soluble”.
With `O=C(O)Cc1ccccc1Nc1c(Cl)cccc1Cl` [diclofenac potassium], the solubility in water entry is on record as “soluble”.
